Measured values from US12344616B2, “Factor XIa inhibitors” (Merck Sharp & Dohme LLC, priority 2018, dated 2025).
In brackets after ≈: the same amount, converted by molar mass. Read-outs that look alike come from different tables or passages of the source.

Experiments:
human Factor XIa = human Factor XIa (Homo sapiens (Human), UniProt P03951); assay: Factor XIa assay; format: biochemical; settings: human Factor XIa 0.04 nM, GPR-AFC substrate, 25° C.; read-out: FXIa IC50
Method: (§1) The effectiveness of a compound of the present invention as an inhibitor of Coagulation Factor XIa can be determined using a relevant purified serine protease, and an appropriate synthetic substrate. The rate of hydrolysis of the chromogenic or fluorogenic substrate by the relevant serine protease was measured both in the absence and presence of compounds of the present invention. Assays were conducted at room temperature or at 37° C. […] A decrease in the rate of fluorescence change in the presence of inhibitor is indicative of enzyme inhibition. Such methods are known to one skilled in the art. The results of this assay are expressed as the half-maximal inhibitory concentrations (IC50), or the inhibitory constant, Ki.
Compounds were pre-incubated for 30 minutes at 25° C. with human (0.04 nM) Factor XIa in 50 mM HEPES buffer with 150 mM sodium chloride, 5 mM calcium chloride, 0.1% PEG 8000, pH 7.4. Factor XIa enzymatic activity was determined by addition of the substrate glycine-proline-arginine-7-amido-4-trifluoromethylcoumarin (GPR-AFC) and measurement of the fluorescence at 400/505 nm after a 60 minute incubation at 25° C. The % inhibition for each data point was calculated from the data and analyzed using the log (inhibitor) vs. response four parameters equation to determine the half-maximal inhibitory concentrations (IC50). The IC50 were, converted to equilibrium inhibitory constants (Ki) using the Cheng-Prusoff equation.

Human plasma kallikrein = Human plasma kallikrein (Homo sapiens (Human), UniProt P03952); assay: Kallikrein assay (plasma kallikrein, pKal); format: biochemical; settings: purified Human plasma kallikrein 0.5 nM, Acetyl-K-P-R-AFC substrate
Chain of Human plasma kallikrein (P03952 391-638): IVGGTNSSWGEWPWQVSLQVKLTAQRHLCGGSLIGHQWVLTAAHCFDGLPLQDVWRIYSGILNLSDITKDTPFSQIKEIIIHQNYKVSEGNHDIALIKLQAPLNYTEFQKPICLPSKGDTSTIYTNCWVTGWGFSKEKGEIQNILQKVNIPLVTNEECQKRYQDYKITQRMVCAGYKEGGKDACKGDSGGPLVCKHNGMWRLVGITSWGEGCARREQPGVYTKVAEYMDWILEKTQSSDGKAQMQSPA
Chain of Human plasma kallikrein (P03952 20-390 partner): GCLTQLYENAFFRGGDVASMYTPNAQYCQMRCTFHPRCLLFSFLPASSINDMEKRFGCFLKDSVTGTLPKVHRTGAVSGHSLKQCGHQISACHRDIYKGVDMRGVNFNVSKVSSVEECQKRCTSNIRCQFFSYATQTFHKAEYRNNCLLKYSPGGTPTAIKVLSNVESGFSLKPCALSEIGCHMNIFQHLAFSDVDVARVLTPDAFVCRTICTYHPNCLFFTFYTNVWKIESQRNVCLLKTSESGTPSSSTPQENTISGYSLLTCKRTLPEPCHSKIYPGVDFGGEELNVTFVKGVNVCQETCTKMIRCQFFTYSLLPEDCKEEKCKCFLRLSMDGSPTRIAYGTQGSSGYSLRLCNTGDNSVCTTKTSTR
Method: as §1, with “Kallikrein” for “Coagulation Factor XIa”, “[…] Determinations were made using purified Human plasma kallikrein at a final concentration” for “The results”, “0.5 nM (Enzyme Research Laboratories) and” for “this assay are expressed as”, “synthetic substrate, Acetyl-K—P—R-AFC (Sigma #C6608) at a concentration of […].” for “half-maximal inhibitory concentrations (IC50), or the inhibitory constant, Ki.”
Activity assays were performed by diluting a stock solution of substrate at least tenfold to a final concentration ≤0.2 Km into a solution containing enzyme or enzyme equilibrated with inhibitor. Times required to achieve equilibration between enzyme and inhibitor were determined in control experiments. The reactions were performed under linear progress curve conditions and fluorescence increase measured at 405 Ex/510 Em nm. Values were converted to percent inhibition of the control reaction (after subtracting 100% Inhibition value). IC50 was determined by inflection point from a four parameter logistic curve fit. Ki was calculated using the Cheng Prusoff equation, Ki=IC50/(1+([S]/Km)).

[1] = biological target: Human Norepinephrine Transporter (NET) (Homo sapiens (Human), UniProt P23975); assay: Norepinephrine Transporter functional antagonist uptake assay; format: cell-based; settings: [3H]Norepinephrine uptake, MDCK cells expressing human recombinant NET
Chain of Human Norepinephrine Transporter (NET) (P23975 whole entry): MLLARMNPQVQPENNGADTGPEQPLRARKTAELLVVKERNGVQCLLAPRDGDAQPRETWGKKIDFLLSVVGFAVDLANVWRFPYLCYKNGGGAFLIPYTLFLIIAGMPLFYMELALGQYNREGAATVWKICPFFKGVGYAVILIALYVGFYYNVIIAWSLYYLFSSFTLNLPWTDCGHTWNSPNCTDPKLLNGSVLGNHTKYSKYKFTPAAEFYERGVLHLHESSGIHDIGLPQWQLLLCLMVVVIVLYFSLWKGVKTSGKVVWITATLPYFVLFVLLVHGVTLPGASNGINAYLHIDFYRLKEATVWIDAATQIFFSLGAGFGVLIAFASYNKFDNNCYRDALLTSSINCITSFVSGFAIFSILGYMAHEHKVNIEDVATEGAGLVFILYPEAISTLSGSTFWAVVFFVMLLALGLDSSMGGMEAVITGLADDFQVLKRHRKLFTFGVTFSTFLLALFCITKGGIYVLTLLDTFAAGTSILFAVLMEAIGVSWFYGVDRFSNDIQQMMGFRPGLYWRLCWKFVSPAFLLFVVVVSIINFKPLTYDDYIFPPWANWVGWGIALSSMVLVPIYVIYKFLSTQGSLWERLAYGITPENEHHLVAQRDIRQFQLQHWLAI
Method: Human Norepinephrine Transporter (NET) Functional Antagonist Uptake Assay was carried out at Panlabs Cerep (assay #302100). Human recombinant norepinephrine transporter expressed in MDCK cells were plated overnight. Test compound and/or vehicle was pre-incubated with cells (2×10E5/ml) in modified Tris-HEPES buffer pH 7.1 for 20 minutes at 25° C. and 25 nM [3H]Norepinephrine was then added for an additional 15 minute incubation period. A lysate was obtained from solubilized cells and counted to determine [3H]Norepinephrine uptake. Reduction of [3H]Norepinephrine uptake by 50 percent or more (≥50%) relative to 10 μM desipramine indicates significant inhibitory activity. Compounds are screened at 10, 3, 1, 0.3, 0.1, 0.03, 0.01 and 0.003 μM. These same concentrations are concurrently applied to a separate group of untreated cells and evaluated for possible compound-induced cytotoxicity only if significant inhibition of uptake is observed. IC50 values were determined by a non-linear, least squares regression analysis using MathIQ™ (IDBusiness Solutions Ltd., UK).

[2] = High-throughput (HT) solubility determination; format: physicochemical; settings: kinetic from dmso stock
Method: The chromatographic system consists of an Agilent 1290 UPLC/DAD system and ChemStation software, both from Agilent Technologies, USA. The separations are carried out on a Supelco Ascentis Express C18, 30 mm×3.0 mm I.D., 2.7 μm HPLC column. The mobile phase consists of Potassium phosphate buffered at pH 7 (mobile phase A) and acetonitrile (mobile phase B). The column oven temperature is set to 30° C. and the UPLC analysis consists of a gradient. The injection volume is 2 μL and the spectrophotometric detection is set to 215 and 238 nm.
A 10 mM stock solution of the compound in DMSO is supplied for analysis. 2.5 μL of stock solution (10 mM) was diluted into 247.5 μL of organic co-solvents (10% MeCN/80% MeOH/10% DMSO, v/v/v) to create a standard solution of 100 μM. To create the solubility solutions, 4.1 μL of 10 mM DMSO stock solution was diluted into […] (PBS) (pH 7) solution. A second 4.1 μL aliquot of 10 mM DMSO stock solution was added to 196 μL of PBS (pH 2) solution. A third 4.1 μL aliquot of 10 mM DMSO stock solution was added to 196 μL of FaSSIF (pH 6.5) solution. Each solubility solution was sealed and shaken for 24 hours at 25° C. Filtered the equilibrated solubility solutions by centrifugation using a filter (0.45 μm, polypropylene). Placed 50 μL each of the 100 μM standard solution and the filtered equilibrated solubility solutions into a 384 well plate, and the plate was subsequently heat sealed.
Analyzed each standard and solubility solution by UPLC/DAD. The solubility value was calculated by the following equation: Solubility=(Peak area of sample/Peak area of standard)(Standard concentration)

[3] = FaSSIF pH 6.5, 24 hours at 25° C., read-out: pH 6.5 (FaSSIF) solubility
[4] = phosphate buffered saline (PBS) pH 2, aqueous buffer, PBS pH 2, 24 hours at 25° C., read-out: pH 2 solubility

Chain of human Factor XIa (P03951 388-625): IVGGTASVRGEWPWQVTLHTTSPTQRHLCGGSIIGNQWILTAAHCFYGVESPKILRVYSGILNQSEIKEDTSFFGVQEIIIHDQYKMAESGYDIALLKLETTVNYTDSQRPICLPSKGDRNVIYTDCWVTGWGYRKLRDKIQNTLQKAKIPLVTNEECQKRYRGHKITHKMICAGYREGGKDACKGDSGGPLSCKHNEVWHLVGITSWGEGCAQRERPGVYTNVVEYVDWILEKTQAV
Chain of human Factor XIa (P03951 19-387 partner): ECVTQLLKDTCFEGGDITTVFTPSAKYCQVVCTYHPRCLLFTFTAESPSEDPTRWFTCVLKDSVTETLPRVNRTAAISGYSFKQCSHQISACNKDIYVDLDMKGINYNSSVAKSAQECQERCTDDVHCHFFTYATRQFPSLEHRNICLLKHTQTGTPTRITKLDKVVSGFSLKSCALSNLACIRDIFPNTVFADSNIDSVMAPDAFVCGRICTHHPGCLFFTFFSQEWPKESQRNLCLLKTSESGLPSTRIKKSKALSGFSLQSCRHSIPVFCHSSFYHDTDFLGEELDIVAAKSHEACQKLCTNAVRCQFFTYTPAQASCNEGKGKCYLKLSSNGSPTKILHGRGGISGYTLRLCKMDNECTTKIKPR

Compound | IC50 (human Factor XIa) | IC50 (Human plasma kallikrein) | IC50 [1] | solubility kinetic at 24 h [2, 3] | solubility kinetic at 24 h [2, 4]
COC(=O)Nc1ccc2c(c1)NC(=O)C(C)(C)CCC[C@H](c1ccc(-c3c(-n4cc(C(F)(F)F)cn4)ccc(F)c3F)c[n+]1[O-])c1nc-2c(C)[nH]1 [Example 1, (R,Z)-5-(2,3-difluoro-6-(4-(trifluoromethyl)-1H-pyrazol-1-yl)phenyl)-2-(2^4-((methoxycarbonyl)amino)-1^5,5,5-trimethyl-4-oxo-1^1H-3-aza-1(4,2)-imidazola-2 (1,2)-benzenacyclononaphane-9-yl)pyridine 1-oxide] | 1.5 nM | 480 nM | > 10000 nM | 36 µM (≈ 25.5 µg/mL) | > 200 µM
COC(=O)Nc1ccc2c(c1)NC(=O)C(C)(C)CCC[C@H](c1ccc(-c3cc(Cl)ccc3-n3cc(C(F)F)cn3)c[n+]1[O-])c1nc-2c(C)[nH]1 [Example 4, (R,Z)-5-(5-chloro-2-(4-(difluoromethyl)-1H-pyrazol-1-yl)phenyl)-2-(2^4-((methoxycarbonyl)amino)-1^5,5,5-trimethyl-4-oxo-1^1H-3-aza-1(4,2)-imidazola-2(1,2)-benzenacyclononaphane-9-yl)pyridine 1-oxide] | 0.9 nM | 46 nM | 6500 nM | 44 µM (≈ 30.4 µg/mL) | 166 µM (≈ 115 µg/mL)
COC(=O)Nc1ccc2c(c1)NC(=O)C(C)(C)CCC[C@H](c1ccc(-c3cc(F)ccc3-c3cnn(C(F)(F)F)c3)c[n+]1[O-])c1nc-2c(C)[nH]1 [Example 5, (R,Z)-5-(5-fluoro-2-(1-(trifluoromethyl)-1H-pyrazol-4-yl)phenyl)-2-(2^4-((methoxycarbonyl)amino)-1^5,5,5-trimethyl-4-oxo-1^1H-3-aza-1(4,2)-imidazola-2(1,2)-benzenacyclononaphane-9-yl)pyridine 1-oxide] | 2 nM | 371 nM | > 10000 nM | 50 µM (≈ 34.6 µg/mL) | 146 µM (≈ 101 µg/mL)

Further compounds by falling IC50 (human Factor XIa), results first:

IC50 (human Factor XIa) | IC50 (Human plasma kallikrein) | IC50 [1] | solubility kinetic at 24 h [2, 3] | solubility kinetic at 24 h [2, 4] | Compound
4.4 nM | 443 nM | 180 nM | 55 µM (≈ 35.3 µg/mL) | 143 µM (≈ 91.7 µg/mL) | COC(=O)Nc1ccc2c(c1)NC(=O)C(C)(C)CCC[C@H](c1ccc(-c3cc(Cl)cnc3OC(F)F)c[n+]1[O-])c1nc-2c(C)[nH]1 [Example 6, (R,Z)-5′-chloro-2′-(difluoromethoxy)-6-(2^4-((methoxycarbonyl)amino)-1^5,5,5-trimethyl-4-oxo-1^1H-3-aza-1(4,2)-imidazola-2(1,2)-benzenacyclononaphane-9-yl)-[3,3′-bipyridine]1-oxide]
2.9 nM | 1080 nM | > 10000 nM | 53 µM (≈ 36.7 µg/mL) | 209 µM (≈ 145 µg/mL) | COC(=O)Nc1ccc2c(c1)NC(=O)C(C)(C)CCC[C@H](c1ccc(-c3cc(F)ccc3-n3cc(C(F)(F)F)cn3)c[n+]1[O-])c1nc-2c(C)[nH]1 [Example 2, (R.Z)-5-(5-fluoro-2-(4-(trifluoromethyl)-1H-pyrazol-1-yl)phenyl)-2-(2^4-((methoxycarbonyl)amino)-1^5,5,5-trimethyl-4-oxo-1^1H-3-aza-1(4,2)-imidazola-2(1,2)-benzenacyclononaphane-9-yl)pyridine 1-oxide]
0.89 nM | 42 nM | > 10000 nM | 27 µM (≈ 19.1 µg/mL) | 159 µM (≈ 113 µg/mL) | COC(=O)Nc1ccc2c(c1)NC(=O)C(C)(C)CCC[C@H](c1ccc(-c3cc(Cl)ccc3-n3cc(C(F)(F)F)cn3)c[n+]1[O-])c1nc-2c(C)[nH]1 [Example 3]
